According to ChEMBL document CHEMBL4828724 (Eur J Med Chem, 2021):
Values belong to the compound of their own block, whether it stands above or below them.

What was measured:
[1] = target: Synaptic vesicular amine transporter (Rattus norvegicus) (UniProt Q01827); assay: Inhibition of [3H]DA uptake at VMAT2 in rat striatal synaptosome at 1 uM incubated for 10 mins followed by [3H]DA addition and measured after 20 mins by TopCount scintillation counting method relative to control; type: subcellular; details: Striatum, time 30.0 min
[2] = target: Synaptic vesicular amine transporter (Rattus norvegicus) (UniProt Q01827); assay: Inhibition of [3H]DA uptake at VMAT2 in rat striatal synaptosome at 0.1 uM incubated for 10 mins followed by [3H]DA addition and measured after 20 mins by TopCount scintillation counting method relative to control; type: subcellular; details: Striatum, time 30.0 min
[3] = target: T1, Synaptic vesicular amine transporter (Rattus norvegicus, UniProt Q01827); assay: Inhibition of [3H]DTBZ binding to VMAT2 in rat brain incubated for 30 mins by liquid scintillation spectrometry analysis; type: tissue-based
[4] = Metabolic stability in monkey liver microsomes assessed as intrinsic clearance at 1 uM in the presence of NADPH measured for 60 mins by LC-MS/MS analysis; type: ADME, Macaca mulatta, Microsome; details: rhesus monkey, read-out: CLH
[5] = Metabolic stability in human liver microsomes assessed as half life at 1 uM in the presence of NADPH measured for 60 mins by LC-MS/MS analysis; type: ADME, Microsome
[6] = Metabolic stability in mouse liver microsomes assessed as intrinsic clearance at 1 uM in the presence of NADPH measured for 60 mins by LC-MS/MS analysis; type: ADME, Microsome; details: read-out: CLH
[7] = Metabolic stability in mouse liver microsomes assessed as parent compound remaining at 1 uM in the presence of NADPH measured after 60 mins by LC-MS/MS analysis; type: ADME, Microsome; details: liver microsomes, read-out: Stability
[8] = Metabolic stability in human liver microsomes assessed as parent compound remaining at 1 uM in the presence of NADPH measured after 60 mins by LC-MS/MS analysis; type: ADME, Microsome; details: read-out: Stability
[9] = Metabolic stability in human liver microsomes assessed as intrinsic clearance at 1 uM in the presence of NADPH measured for 60 mins by LC-MS/MS analysis; type: ADME, Microsome; details: read-out: CLH
[10] = Metabolic stability in monkey liver microsomes assessed as half life at 1 uM in the presence of NADPH measured for 60 mins by LC-MS/MS analysis; type: ADME, Macaca mulatta, Microsome; details: rhesus monkey
[11] = Metabolic stability in mouse liver microsomes assessed as half life at 1 uM in the presence of NADPH measured for 60 mins by LC-MS/MS analysis; type: ADME, Microsome; details: liver microsomes
[12] = Metabolic stability in monkey liver microsomes assessed as parent compound remaining at 1 uM in the presence of NADPH measured after 60 mins by LC-MS/MS analysis; type: ADME, Macaca mulatta, Microsome; details: rhesus monkey, liver microsomes, read-out: Stability
[13] = target: T1, Synaptic vesicular amine transporter; assay: Inhibition of [3H]DA uptake at VMAT2 in rat striatal synaptosome incubated for 10 mins followed by [3H]DA addition and measured after 20 mins by TopCount scintillation counting method; type: subcellular, Striatum
[14] = Tmax in Sprague-Dawley rat at 10 umol/kg, ig administered as single dose measured for 12 hrs by LC-MS/MS analysis; type: ADME; details: in vivo, po, dose 10 µmol/kg
Cytochrome P450 2C19 = Cytochrome P450 2C19 (Homo sapiens, UniProt P33261); assay: Inhibition of CYP2C19 (unknown origin); type: ADME
Rattus norvegicus [15] = assay: Reduction in spontaneous locomotor activity in Sprague-Dawley rat at 15 umol/kg, po measured for 3 hrs; type: functional
Cytochrome P450 2D6 = Cytochrome P450 2D6 (Homo sapiens, UniProt P10635); assay: Inhibition of CYP2D6 (unknown origin); type: ADME
Cytochrome P450 2B6 = target: T2, Cytochrome P450 2B6 (Homo sapiens, UniProt P20813); assay: Inhibition of CYP2B6 (unknown origin); type: ADME
T2 sequence (P20813 whole entry): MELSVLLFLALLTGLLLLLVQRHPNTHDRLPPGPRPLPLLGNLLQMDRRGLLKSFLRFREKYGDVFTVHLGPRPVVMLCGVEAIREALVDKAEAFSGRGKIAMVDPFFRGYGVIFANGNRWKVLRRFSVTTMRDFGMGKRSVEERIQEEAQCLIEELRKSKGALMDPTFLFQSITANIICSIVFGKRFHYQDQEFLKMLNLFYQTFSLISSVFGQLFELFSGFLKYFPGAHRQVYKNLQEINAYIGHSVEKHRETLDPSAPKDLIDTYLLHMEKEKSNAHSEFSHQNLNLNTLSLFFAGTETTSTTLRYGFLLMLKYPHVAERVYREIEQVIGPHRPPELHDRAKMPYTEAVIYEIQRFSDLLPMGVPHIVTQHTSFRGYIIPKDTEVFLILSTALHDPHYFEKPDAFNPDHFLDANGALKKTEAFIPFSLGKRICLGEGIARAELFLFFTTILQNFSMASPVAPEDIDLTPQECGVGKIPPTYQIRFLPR

Rattus norvegicus [16] = assay: Reduction in spontaneous locomotor activity in Sprague-Dawley rat at 3 umol/kg, po measured for 3 hrs; type: functional
[17] = Half life in Sprague-Dawley rat at 10 umol/kg, ig administered as single dose measured for 12 hrs by LC-MS/MS analysis; type: ADME; details: in vivo, po, dose 10 µmol/kg
[18] = Apparent volume of distribution during terminal phase in Sprague-Dawley rat at 10 umol/kg, ig administered as single dose measured after 12 hrs by LC-MS/MS analysis; type: ADME; details: in vivo, po, dose 10 µmol/kg, read-out: Vz/F
[19] = AUC (0 to infinity) in Sprague-Dawley rat at 10 umol/kg, ig administered as single dose by LC-MS/MS analysis; type: ADME; set-up: time infinity, route […], dose 10 µmol/kg; details: in vivo, po
[20] = Drug uptake in Sprague-Dawley rat brain at 5 umol/kg, ig measured after 2 hrs by LC-MS/MS analysis; type: ADME, tissue-based; details: in vivo, po, dose 5 µmol/kg
Cytochrome P450 2C9 = Cytochrome P450 2C9 (Homo sapiens, UniProt P11712); assay: Inhibition of CYP2C9 (unknown origin); type: ADME
Cytochrome P450 3A4 = Cytochrome P450 3A4 (Homo sapiens, UniProt P08684); assay: Inhibition of CYP3A4 (unknown origin); type: ADME
[21] = Clearance in Sprague-Dawley rat at 10 umol/kg, ig administered as single dose measured for 12 hrs by LC-MS/MS analysis; type: ADME; details: in vivo, po, dose 10 µmol/kg
[22] = Cmax in Sprague-Dawley rat at 10 umol/kg, ig administered as single dose measured for 12 hrs by LC-MS/MS analysis; type: ADME; set-up: route […], time 12 hrs, dose 10 µmol/kg; details: in vivo, po
[23] = target: Voltage-gated inwardly rectifying potassium channel KCNH2 (Homo sapiens, UniProt Q12809); assay: Inhibition of human ERG
[24] = Ratio of drug level in Sprague-Dawley rat brain to blood at 5 umol/kg, ig measured after 6 hrs by LC-MS/MS analysis; type: ADME, tissue-based; details: po, dose 5 µmol/kg

Chain of Synaptic vesicular amine transporter (Rattus norvegicus) (Q01827 whole entry): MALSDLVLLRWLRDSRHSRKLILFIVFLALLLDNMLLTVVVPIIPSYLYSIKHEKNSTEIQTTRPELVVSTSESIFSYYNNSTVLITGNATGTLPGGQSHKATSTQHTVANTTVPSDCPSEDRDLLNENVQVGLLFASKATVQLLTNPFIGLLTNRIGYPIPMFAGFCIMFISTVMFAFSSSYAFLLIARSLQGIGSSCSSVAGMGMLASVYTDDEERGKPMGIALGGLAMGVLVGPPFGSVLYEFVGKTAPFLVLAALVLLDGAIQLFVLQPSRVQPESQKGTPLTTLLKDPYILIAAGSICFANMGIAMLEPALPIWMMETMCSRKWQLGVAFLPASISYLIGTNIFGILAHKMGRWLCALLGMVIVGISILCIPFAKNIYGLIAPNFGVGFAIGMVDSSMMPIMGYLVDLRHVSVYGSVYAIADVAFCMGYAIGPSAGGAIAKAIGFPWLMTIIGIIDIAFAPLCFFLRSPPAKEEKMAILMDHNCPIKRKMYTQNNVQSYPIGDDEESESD
T1 sequence (Q01827 whole entry): as above
Chain of Cytochrome P450 2C19 (P33261 whole entry): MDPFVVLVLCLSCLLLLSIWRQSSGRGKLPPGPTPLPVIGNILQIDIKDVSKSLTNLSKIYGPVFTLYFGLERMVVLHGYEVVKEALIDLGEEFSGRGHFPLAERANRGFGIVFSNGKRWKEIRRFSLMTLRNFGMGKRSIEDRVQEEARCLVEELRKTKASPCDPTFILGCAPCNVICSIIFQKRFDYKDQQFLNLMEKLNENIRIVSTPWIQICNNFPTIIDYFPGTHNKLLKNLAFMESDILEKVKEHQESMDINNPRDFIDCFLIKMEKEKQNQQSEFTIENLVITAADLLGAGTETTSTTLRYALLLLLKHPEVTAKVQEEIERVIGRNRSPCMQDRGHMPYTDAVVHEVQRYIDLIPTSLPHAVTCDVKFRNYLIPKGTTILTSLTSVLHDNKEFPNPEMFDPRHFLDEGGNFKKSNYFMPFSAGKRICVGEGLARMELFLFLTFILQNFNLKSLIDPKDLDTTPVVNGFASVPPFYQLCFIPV
Chain of Cytochrome P450 2D6 (P10635 whole entry): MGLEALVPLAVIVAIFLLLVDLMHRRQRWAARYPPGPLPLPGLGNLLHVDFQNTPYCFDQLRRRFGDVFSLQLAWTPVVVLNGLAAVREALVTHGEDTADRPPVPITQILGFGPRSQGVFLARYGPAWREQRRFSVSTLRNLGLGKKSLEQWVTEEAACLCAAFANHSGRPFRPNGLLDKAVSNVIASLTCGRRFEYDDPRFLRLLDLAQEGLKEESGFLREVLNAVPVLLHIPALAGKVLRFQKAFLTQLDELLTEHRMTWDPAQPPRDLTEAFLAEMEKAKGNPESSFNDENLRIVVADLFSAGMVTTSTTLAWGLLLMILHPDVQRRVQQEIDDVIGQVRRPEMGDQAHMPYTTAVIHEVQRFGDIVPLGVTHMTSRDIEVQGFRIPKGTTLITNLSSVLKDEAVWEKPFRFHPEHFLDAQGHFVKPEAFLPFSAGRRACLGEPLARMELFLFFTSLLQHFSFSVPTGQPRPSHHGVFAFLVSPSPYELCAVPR
Chain of Cytochrome P450 3A4 (P08684 whole entry): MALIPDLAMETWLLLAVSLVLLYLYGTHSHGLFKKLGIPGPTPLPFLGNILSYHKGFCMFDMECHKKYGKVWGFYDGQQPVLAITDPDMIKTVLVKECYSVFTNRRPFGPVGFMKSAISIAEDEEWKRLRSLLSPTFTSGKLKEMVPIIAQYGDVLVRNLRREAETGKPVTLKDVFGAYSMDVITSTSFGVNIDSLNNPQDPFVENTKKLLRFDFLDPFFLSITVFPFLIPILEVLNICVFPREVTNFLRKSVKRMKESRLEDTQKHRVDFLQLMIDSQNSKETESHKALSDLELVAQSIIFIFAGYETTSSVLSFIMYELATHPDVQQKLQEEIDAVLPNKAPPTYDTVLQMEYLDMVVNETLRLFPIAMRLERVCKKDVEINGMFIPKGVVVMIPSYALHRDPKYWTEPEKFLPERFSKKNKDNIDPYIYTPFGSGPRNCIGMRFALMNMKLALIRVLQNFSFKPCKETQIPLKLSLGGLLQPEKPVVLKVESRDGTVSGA
Chain of Cytochrome P450 2C9 (P11712 whole entry): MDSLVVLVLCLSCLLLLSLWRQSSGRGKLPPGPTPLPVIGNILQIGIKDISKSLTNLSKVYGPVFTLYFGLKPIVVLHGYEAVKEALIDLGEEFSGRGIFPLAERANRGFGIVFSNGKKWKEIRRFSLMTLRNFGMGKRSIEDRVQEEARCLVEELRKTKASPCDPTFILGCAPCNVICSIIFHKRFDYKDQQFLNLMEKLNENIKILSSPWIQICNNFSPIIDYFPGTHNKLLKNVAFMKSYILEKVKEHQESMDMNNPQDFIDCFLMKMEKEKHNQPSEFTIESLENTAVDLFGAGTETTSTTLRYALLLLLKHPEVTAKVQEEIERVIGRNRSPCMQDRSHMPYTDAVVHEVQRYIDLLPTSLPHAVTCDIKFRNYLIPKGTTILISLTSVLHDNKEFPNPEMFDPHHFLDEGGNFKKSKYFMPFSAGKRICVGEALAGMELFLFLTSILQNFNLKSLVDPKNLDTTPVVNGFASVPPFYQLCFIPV
Chain of Voltage-gated inwardly rectifying potassium channel KCNH2 (Q12809 whole entry): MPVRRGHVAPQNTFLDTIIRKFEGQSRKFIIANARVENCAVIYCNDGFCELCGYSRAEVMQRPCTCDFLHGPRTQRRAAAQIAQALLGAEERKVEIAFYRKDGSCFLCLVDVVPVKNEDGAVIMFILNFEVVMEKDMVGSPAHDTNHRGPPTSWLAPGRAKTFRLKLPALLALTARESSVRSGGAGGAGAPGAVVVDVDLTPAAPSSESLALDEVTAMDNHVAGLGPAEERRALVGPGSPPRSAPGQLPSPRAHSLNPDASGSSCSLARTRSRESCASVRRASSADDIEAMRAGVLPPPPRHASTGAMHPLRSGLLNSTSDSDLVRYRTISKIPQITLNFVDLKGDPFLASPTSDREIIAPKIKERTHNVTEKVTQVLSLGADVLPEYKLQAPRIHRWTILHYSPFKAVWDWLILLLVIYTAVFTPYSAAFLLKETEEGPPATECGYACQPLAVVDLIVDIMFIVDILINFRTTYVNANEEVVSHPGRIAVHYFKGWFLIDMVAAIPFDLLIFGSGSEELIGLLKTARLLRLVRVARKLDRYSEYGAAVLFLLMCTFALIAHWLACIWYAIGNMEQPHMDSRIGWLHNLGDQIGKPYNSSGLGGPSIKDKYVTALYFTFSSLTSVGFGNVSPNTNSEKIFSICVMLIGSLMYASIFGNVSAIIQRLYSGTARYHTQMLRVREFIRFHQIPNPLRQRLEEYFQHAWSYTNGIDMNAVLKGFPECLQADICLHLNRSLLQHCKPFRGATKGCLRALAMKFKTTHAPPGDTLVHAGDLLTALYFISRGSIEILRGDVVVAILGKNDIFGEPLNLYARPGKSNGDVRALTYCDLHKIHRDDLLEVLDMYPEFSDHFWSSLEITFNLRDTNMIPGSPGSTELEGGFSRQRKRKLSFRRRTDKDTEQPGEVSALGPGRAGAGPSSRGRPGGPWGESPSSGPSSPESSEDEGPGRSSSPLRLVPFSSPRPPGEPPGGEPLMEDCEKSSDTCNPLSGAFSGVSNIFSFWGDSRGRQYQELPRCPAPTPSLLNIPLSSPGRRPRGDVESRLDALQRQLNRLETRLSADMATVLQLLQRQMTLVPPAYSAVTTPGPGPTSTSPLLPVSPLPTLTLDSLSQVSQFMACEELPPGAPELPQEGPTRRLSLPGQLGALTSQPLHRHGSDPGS

SMILES: COc1cc2c(cc1OC)C1CC(C)(O)C(CC(C)C)CN1CC2 (configuration not stated)
- inhibition [1]: 96.1%
- inhibition [2]: 53.1%
- IC50 [3]: > 0.5 µM

SMILES: CC(C)CC1CN2CCc3cc(OCC4CC4)c(OCC4CC4)cc3C2CC1O (configuration not stated)
- IC50 [3]: 0.21 µM

SMILES: COc1cc2c(cc1OC)C1CC(O)(CO)C(CC(C)C)CN1CC2 (configuration not stated)
- CLint scaled at 1 µM [6]: 8.57 L/h/kg
- inhibition [1]: 99.7%
- inhibition [2]: 99.1%
- CLint scaled at 1 µM [9]: 6.55 L/h/kg
- IC50 [3]: 0.00802 µM
- IC50 [13]: 0.00514 µM

SMILES: CCOc1cc2c(cc1OCCCF)CCN1CC(CC(C)C)C(O)CC21 (configuration not stated)
- IC50 [3]: 0.0566 µM

SMILES: CCCOc1cc2c(cc1OC(C)C)CCN1CC(CC(C)C)C(O)CC21 (configuration not stated)
- IC50 [3]: > 0.5 µM

SMILES: CCOc1cc2c(cc1OCCCOC)CCN1CC(CC(C)C)C(O)CC21 (configuration not stated)
- IC50 [3]: 0.2 µM

SMILES: CCOc1cc2c(cc1OCCCOC)C1CC(O)C(CC(C)C)CN1CC2 (configuration not stated)
- IC50 [3]: 0.0732 µM

Now from value to compound, other results behind:

- CLint scaled at 1 µM [4]: 7.21 L/h/kg
- half-life at 1 µM [5]: 55.4 min
- CLint scaled at 1 µM [6]: 32.1 L/h/kg
- remaining at 1 h, 1 µM [7]: 1.3%
- remaining at 1 h, 1 µM [8]: 47.3%
- CLint scaled at 1 µM [9]: 1.35 L/h/kg
- IC50 [3]: 0.0125 µM
- half-life at 1 µM [10]: 15.6 min
- half-life at 1 µM [11]: 10.3 min
- remaining at 1 h, 1 µM [12]: 6.6%
SMILES: CCCOc1cc2c(cc1OCC)C1CC(O)C(CC(C)C)CN1CC2 (configuration not stated)

- Tmax [14]: 22.8 min
- CLint scaled at 1 µM [4]: 3.22 L/h/kg
- IC50 (Cytochrome P450 2C19): > 100 µM
- half-life at 1 µM [5]: 120 min
- CLint scaled at 1 µM [6]: 68.9 L/h/kg
- IC50 (Cytochrome P450 2D6): > 100 µM
- IC50 (Cytochrome P450 2B6): > 100 µM
- remaining at 1 h, 1 µM [7]: 4.8%
- half-life [17]: 96.6 min
- Vd/F [18]: 10.5 L/kg
- AUC(0-inf) [19]: 2300 nM·h
- Drug uptake [20]: 213.5 nmol/kg
- IC50 (Cytochrome P450 2C9): > 100 µM
- IC50 (Cytochrome P450 3A4): > 100 µM
- remaining at 1 h, 1 µM [8]: 75.6%
- CLint scaled at 1 µM [9]: 1.25 L/h/kg
- CL/F [21]: 4.47 L/h/kg
- half-life at 1 µM [10]: 34.8 min
- Cmax [22]: 1.21 µM
- half-life at 1 µM [11]: 4.8 min
- remaining at 1 h, 1 µM [12]: 29.9%
SMILES: COc1cc2c(cc1OC)[C@H]1C[C@@H](O)[C@H](CC(C)C)CN1CC2 [DIHYDROTETRABENAZINE]
- inhibition in vivo at 15 µmol/kg (Rattus norvegicus [15]): 91.4%
- inhibition in vivo at 3 µmol/kg (Rattus norvegicus [16]): 48.4%

- inhibition [1]: 87.9%
- inhibition [2]: 72.8%
- IC50 [3]: 0.102 µM
SMILES: COc1cc2c(cc1OC)C1CC(N)C(CC(C)C)CN1CC2 (configuration not stated)

- Tmax [14]: 45 min
- CLint scaled at 1 µM [4]: 1.91 L/h/kg
- IC50 (Cytochrome P450 2C19): > 100 µM
- CLint scaled at 1 µM [6]: 14.3 L/h/kg
- Kp at 6 h [24]: 2.21
- IC50 (Cytochrome P450 2D6): > 100 µM
- IC50 (Cytochrome P450 2B6): > 100 µM
- remaining at 1 h, 1 µM [7]: 14.2%
- inhibition [1]: 99.9%
- half-life [17]: 137 min
- Vd/F [18]: 10.8 L/kg
- inhibition [2]: 99.9%
- AUC(0-inf) [19]: 3470 nM·h
- Drug uptake [20]: 458.2 nmol/kg
- IC50 (Cytochrome P450 2C9): > 100 µM
- IC50 (Cytochrome P450 3A4): > 100 µM
- remaining at 1 h, 1 µM [8]: 77.4%
- CLint scaled at 1 µM [9]: 0.516 L/h/kg
- CL/F [21]: 3.2 L/h/kg
- Cmax [22]: 1.4 µM
- remaining at 1 h, 1 µM [12]: 48.1%
SMILES: COc1cc2c(cc1OCC(F)(F)F)CCN1CC(CC(C)C)C(O)CC21 (configuration not stated)
- inhibition in vivo at 15 µmol/kg (Rattus norvegicus [15]): 93.7%
- IC50 [23]: 6.51 µM
- inhibition in vivo at 3 µmol/kg (Rattus norvegicus [16]): 64.7%

- inhibition [1]: 92.1%
- inhibition [2]: 84.9%
- IC50 [13]: 0.0649 µM
SMILES: COCCCOc1cc2c(cc1OC)C1CC(O)C(CC(C)C)CN1CC2 (configuration not stated)
